Measurements published in patent US20090062400A1 (priority 2007, published 2009).

How the values were obtained:
[1] = rats
Method: Rats were sacrificed 2-3 hours after last administration. According to preliminary experiment, in order to obtain enough substance for MAO and protein analysis, 4 retinas (from 2 rats) were combined into one sample, (3 retina samples for MAO per each dose groups). The 6 brains and 6 livers were analyzed separately.

[2] = test system: retinal ganglion cells (RGCs); settings: Lewis rats, subcutaneous injection, single or repeated (treatment and prevention protocols)
retinal ganglion cells [3] = settings: rats, rasagiline in the drinking water
Source text: Chronic, moderately elevated IOP is produced unilaterally by cautery of three episcleral vessels; the contralateral eye served as the control. To perform the cautery, sutures are placed in the lids to keep the eye open and in the bulbar conjunctiva to manipulate the globe. Three of the four to five major trunks formed by limbal-derived veins are exposed at the equator of the eye by incising the conjunctiva. Each vessel is lifted with a small muscle hook and cauterized by direct application of an ophthalmic, disposable cautery against the muscle hook. Immediate retraction and absence of bleeding of the cauterized ends of the vessels are noted as successful cauterization. After surgery, eyes are treated topically with bacitracin-neomycin-polymyxin for a few days during recovery.
One group is treated with rasagiline, in the drinking water, for a period of time. Another group is not treated with rasagiline, but receives drinking water on the same schedule. Once a month, each animal is anesthetized and IOP is determined bilaterally. The animals are awake within 15 minutes of the IOP measurement. On any given eye, three to five tonometer readings are taken and averaged. […]
Labeled retinal ganglion cells are counted using fluorescence microscopy in 12 fields of the retina.

retinal ganglion cells [4] = settings: adult rats, rasagiline before intravitreal SSP
Method: The effect of rasagiline on RGC survival is tested in a rat model of RGC survival.
In this well-established model it is used to induce apoptosis of retinal ganglion cells.
Adult rats are used in all rat experiments.
Rats receive a dose of intravitreal SSP in PBS. Animals are imaged immediately and up to 6 h, after which they are sacrificed for histology.
To examine the effect of rasagiline on the survival of RGCs, one group of rats are treated with rasagiline for a period of time before SSP. A further group of naïve rats receives no rasagiline.
The animal is positioned before the cLSO so that the interior of the eye is imaged. An Argon laser wavelength of 488 nm is focused into a small spot and scanned across the retina by a pair of mirrors to excite the administered annexin 5-bound fluorophore. The fluorescence is detected by a solid-state photodetector.
For imaging, animals are held in a stereotaxic frame and their pupils dilated. Videos of scanned retinal areas are assessed for fluorescence. All animals have baseline images recorded before receiving intravitreal injections of Alexa Fluor 488-labeled annexin-5. […]
Fluorescent retinas are assessed by using a confocal laser scanning microscope.
The number of stained RGC and annexin 5-labeled apoptotic RGCs are counted with microscopy analysis software.

retinal ganglion cells [5] = settings: Wistar rats, 0.5 and 3 mg/kg IP once daily, 6 weeks
Method: Male Wistar rats weighing 375-400 gm are treated under procedures approved and monitored by the Animal Care Committee of the Tel-Aviv University School of Medicine and following the procedures outlined in the Association for Research in Vision and Opthalmology Statement for the use of animals in ophthalmic and vision research. Animals are housed with a 14 hour light/10 hour dark cycle with standard chow and water ad libitum.
Glaucoma is induced in one eye of rats by using the translimbal laser photocoagulation model developed by Levkovitch-Verbin. This model can produce elevated IOP and typical glaucomatous optic nerve damage in most treated eyes.
In this model, the outflow channels of the rat eye are treated by argon laser at 532 nm. […] IOP is measured with Tonopen XL under the above anaesthesia in both eyes before and immediately after laser treatment and weekly thereafter. Each time ten measurements are obtained on each eye and the mean value is calculated. […]
The volume of administration is 2 ml/kg. […] (calculated for a rat weighing 400 g). […]
Thirty-two (32) images of ×40 magnification from each retina (both eyes for each rat) are photographed using a fluorescent microscope, and the number of surviving retinal ganglion cells are counted for each eye. The number of RGCs in the experimental eye are compared to the fellow control eye to calculated the RGC loss. […]

[6] = test system: retinal ganglion cells (RGCs); settings: Long Evans rats, IP 30 minutes before and 2 hours after ischemia, then once daily
Method: Thirty (30) male pigmented rats (Long Evans) are obtained and divided evenly into 3 groups, (2 test groups and 1 control group) 10 animals in each group. Retinal ischemia is induced by a 100/200-mmHg hyperpressure saline column applied to the eye through a needle for 60 minutes.
For the control group, the vehicle (saline solution) is administered IP 30 minutes before ischemia and 2 hours after ischemia.
Electroretinographic (ERG) measurements of a- and b-wave implicit times and peak amplitudes under scotopic conditions at maximal intensity are taken at baseline (just before ischemia), and 4-7 days after reperfusion.
Sampling of fixed flatmount retinas and histological processing for annexin-5 labeling or TUNEL labeling.

[7] = patients with glaucomatous optic neuropathy, vs placebo
[8] = rasagiline alone; cited from earlier work
[9] = double-blind, placebo-controlled trial; cited from earlier work
[10] = retinal degeneration slow mouse; cited from earlier work

For `C#CCN[C@@H]1CCc2ccccc21` [Rasagiline, R(+)—N-propargyl-1-aminoindan], the “irritation to the eye” value ([1]; preliminary test performed for 2 days, eye drops) was “did not cause irritation to the eye”, the “absorption after intraocular administration” value ([1]; eye drops 0.0165-7.9 mg/kg/day, 10 days) was “absorbed in all doses” and the “effect in the IOP model (RGC survival)” value [2] was “positive effect”. The “effect in the chronic, moderately elevated IOP model (RGC survival)” value (retinal ganglion cells [3]) was “positive effect”, the “effect in the SSP model (RGC apoptosis)” value (retinal ganglion cells [4]) was “positive effect” and the “effect in the experimental glaucoma model” value (retinal ganglion cells [5]) was “positive effect”. For the same molecule, the “ganglion survival in the treated group” value (retinal ganglion cells [5]) was “More ganglion survival”, the “recovery of the retinal electric activity and/or number of apoptotic RGCs after transient ischemia” value [6] was “positive effect” and the “atrophy of the optic nerve” value [7] was “reduced atrophy”. The “preservation of the retina and of the structural integrity of the optic nerve” value [7] was “increased preservation”, the “protection against loss of RGCs” value [7] was “increased protection” and the visual field loss [7] was “reduced visual field loss”. For the same molecule, the “effectiveness in the ALS mouse model” value [8] was “effective treatment”.

For `C#CCN(C)[C@H](C)Cc1ccccc1` [Selegiline], the “effectiveness in treating ALS” value [9] is given as “ineffective”.

For `C[C@]12C=CC(=O)C=C1CC[C@@H]1[C@@H]2[C@@H](O)C[C@@]2(C)[C@H]1CC[C@]2(O)C(=O)CO` [prednisolone], the “effect on retinal degeneration” value [10] is listed as “unsuccessful”.
